Test results taken from patent US20060116325A1, “Methods and compositions for inhibiting hiv-coreceptor interactions” (priority 2001, published 2006).

Assays:
[1] = target: CXCR4 (Homo sapiens, UniProt P61073); assay: Ca2+ mobilization in THP-1 cells in response to SDF-1α (fura-2); type: cell-based; details: peptide 500 μM preincubated, SDF-1α 100 ng/ml, FIG. 6
Protocol: FIGS. 6A through 6D depict the effect of peptide pre-treatment on the mobilization of intracellular Ca^2+ in THP-1 cells in response to SDF-1α. Cells loaded with fura-2 were preincubated with peptide 15K (FIG. 6C), 15D (FIG. 6B) and 15CW (FIG. 6D) at a final concentration of 500 μM for 3 min prior to stimulation with SDF-1α (100 ng/ml).
THP-1 cells (12×10^6/ml in RPMI 1640 containing 10% FSB) were loaded in the presence of 5 μM fura-2 AM (Molecular Probes, Eugene, Oreg.) at 22° C. for 30 min in the dark. Subsequently, cells were washed three times and resuspended (10^6 cells/ml) in the buffer containing 138 mM sodium chloride, 6 mM potassium chloride, 1 mM calcium chloride, 1 mM magnesium chloride, 10 mM HEPES, pH 7.4,5 mM glucose, and 0.1% bovine serum albumin. 1.93 ml of loaded cells was transferred into a quartz cuvette. 50 μl of a peptide stock solution (2×10^−2 M) was added to the cells, and after 3 min of incubation 20 μl of human SDF-1α (10 μg/ml, PeproTech) was added to a stirred cuvette. The measurements were performed using luminescence spectrophotometer LS50 B (Perkin-Elmer). Ca^2+ mobilization in the cells in response to SDF-1α was measured by analysis of the ratio of fluorescence emitted at 510 nm after sequential excitation at 340 and 380 nm.
The increase of intracellular Ca^2+ concentration mediated by a chemokine receptor in response to a cognate chemokine is a reliable assay for measurement of chemokine agonist activity. The human monocytic cell line THP-1 expresses a high level of CXCR4 and responds well to SDF-1α stimulation (FIG. 6A), so these cells were used to determine whether peptides 15D and 15K could block the activation of CXCR4.

[2] = target: T1, CCR5 (Homo sapiens, UniProt P51681); assay: Binding of anti-CCR5 antibody 2D7 to HEK293/CCR5 cells (flow cytometry); parameters: expressed in transfected cells; host or cells: HEK-293; details: 0.1 mM peptide, 45 min 22° C.
T1 sequence (P51681 whole entry): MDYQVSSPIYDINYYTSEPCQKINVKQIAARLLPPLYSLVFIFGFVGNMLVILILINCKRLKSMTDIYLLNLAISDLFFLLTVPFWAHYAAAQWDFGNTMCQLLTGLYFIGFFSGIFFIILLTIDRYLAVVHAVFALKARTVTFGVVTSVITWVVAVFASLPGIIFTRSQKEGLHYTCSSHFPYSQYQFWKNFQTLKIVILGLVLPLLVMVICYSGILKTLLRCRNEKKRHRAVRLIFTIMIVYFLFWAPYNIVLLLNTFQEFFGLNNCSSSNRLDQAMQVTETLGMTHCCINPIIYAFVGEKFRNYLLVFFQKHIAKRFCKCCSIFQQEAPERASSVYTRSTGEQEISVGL
Protocol: CEMx174 cells were pelleted and resuspended at 10^6 cells/ml in PBS containing 1% BSA and 0.1% sodium azide (FACS buffer). Cells were then preincubated with designated concentrations of peptides or SDF-1-α (1 μg/ml) at 22° C. for 60 min. FITC-labeled anti-human CXCR4 antibody (clone 12G5, BD PharMingen, San Diego, Calif.) was added to the cells per the manufactures instructions and further incubated at 22° C. for 40 minutes. Cells were extensively washed with FACS buffer and analyzed using a FACS Calibur flowcytometer (Becton Dickinson). HEK/CCR5 cells were suspended in Dulbecco's PBS containing 1% FCS and 0.05% NaN3 (10^4 cells in 100 μl) and incubated with or without 5 μg of MIP-1β (PeproTech, Rocky Hill, N.J.), 0.1 mM peptide 15D or 15K for 45 min at 22° C. Cells were then treated with FITC-conjugated anti-human CCR5 antibody (2D7; BD PharMingen, San Diego, Calif.), and incubated for 30 min at 22° C. Cells were washed twice, and analyzed using a FACScan flow cytometer (Becton Dickinson Immunocytometry Systems, San Jose, Calif.).
The effect of the exemplary peptides 15K and 15D on the binding of 2D7 antibodies to CCR5 was assayed to further evaluate the mechanism of anti-coreceptor activity of the peptides. […]
The effects of peptides 15D and 15K on 2D7 antibody binding to HEK293/CCR5 cells were analyzed by flow cytometry.

[3] = target: T1, CCR5; assay: Competition with 125I-MIP-1β binding to SupT1/CCR5 cells; parameters: expressed in transfected cells; host or cells: Sup-T1; details: room temperature, 0.1% sodium azide, FIG. 7A
Protocol: FIGS. 7A through 7C depicts the inhibition of chemokine receptor ligand binding by peptide pre-treatment. FIG. 7A. Effect of pre-treatment with peptides 15K and 15D on the binding of MIP-1β to SupT1/CCR5 cells; FIG. 7B. Effect of pre-treatment with peptides 15K and 1SD on the binding of SDF-1α to CEMx174 cells; and FIG. 7C. Effect of pre-treatment with 15K and control peptide 15GIG on the binding of SDF-1α to CEmx174 cells. Binding studies were performed as described in Materials and Methods.
Binding assays were performed with HEK-CCR5 or HEK CXCR4 in triplicate by adding unlabeled competitor (anti-coreceptor binding peptide or control chemokine) and radiolabeled chemokine, 0.2 ng/ml (^125I-MIP-1β or SDF-1α, specific activity 2000 Ci/mmol, NEN Life Science Products) to a cell suspension (4×10^5 cells in 200 μl) in RPMI 1640 supplemented with 1% bovine serum albumin and 25 mM HEPES pH 8.0 (binding medium). […] The supernatant was aspirated and the cell-associated radioactivity was measured using a 1272 Wallac gamma counter. […] After incubation cells were transferred to the tubes containing 800 μl of 10% sucrose in PBS and harvested by centrifugation, the supematant was aspirated and the cell-associated radioactivity was measured using a 1272 Wallac gamma counter. The data were analyzed by nonlinear regression using the computer program GraphPad Prizm 3.0. […]

Sequence of CXCR4 (P61073 whole entry): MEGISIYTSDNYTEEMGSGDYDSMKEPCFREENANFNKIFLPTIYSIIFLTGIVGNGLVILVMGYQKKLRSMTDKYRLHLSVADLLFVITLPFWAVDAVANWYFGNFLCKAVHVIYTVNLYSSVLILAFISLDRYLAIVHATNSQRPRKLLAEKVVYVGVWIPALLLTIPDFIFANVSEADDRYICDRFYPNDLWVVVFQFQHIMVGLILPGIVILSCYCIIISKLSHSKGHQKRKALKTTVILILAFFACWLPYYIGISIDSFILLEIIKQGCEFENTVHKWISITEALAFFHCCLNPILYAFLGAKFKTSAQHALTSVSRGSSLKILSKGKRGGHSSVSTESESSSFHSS

| Substance | inhibition of Ca2+ mobilization in response to SDF-1α [1] | effect on 2D7 anti-CCR5 antibody binding [2] | inhibition of MIP-1β binding to CCR5 [3] |
| --- | --- | --- | --- |
| I R K A H C N I S R A D W N D [Peptide 15D] | completely inhibited | No significant effect | competitively inhibited chemokine binding |
| IRKAHCNISRAKWND [Peptide 15K] | inhibited Ca^2+ mobilization although less efficiently than 15D | No significant effect | competitively inhibited chemokine binding |
